Earlier results on five compounds are cited in patent publication US4632934A, “Imidazole derivatives and pharmaceutical use thereof” (Kissei Pharmaceutical Co., Ltd., priority 1978, dated 1986).

The test system of this data set is thromboxane synthetase. The conditions noted are these: prior art literature.

Consider `c1c[nH]cn1` [imidazole], for which the “inhibitory effect on thromboxane synthetase (in words)” value (shortened to “inhibitory effect”) is recorded as “very weak inhibitory effect”. As for `c1ccc(Cn2ccnc2)cc1` [1-benzylimidazole], the “inhibitory effect” value is listed as “strong inhibitory effect”.

In the case of `CC(C)c1ccccc1-n1ccnc1` [1-(2-isopropylphenyl)imidazole], the “inhibitory effect” value was “strong inhibitory effect”. In the case of `CCCCCCCCCn1ccnc1` [1-nonylimidazole], the “inhibitory effect” value is “strong inhibitory effect”. Turning to `CCCCCCCCCCn1ccnc1` [1-decylimidazole], the “inhibitory effect” value is recorded as “strong inhibitory effect”.
